Assay results reported in patent US20080139536A1, “Benzodiazepines for Treating or Preventing Rsv Infection” (Novartis Pharmaceuticals Corporation, priority 2004, published 2008).

Columns and labels:
RSV (RSS strain) = experiment: RSV ELISA antigen reduction assay in Hep-2 cells; type: cell-based, Respiratory Syncytial Virus; conditions: RSV-infected Hep-2 cells, 3 day assay, ELISA OD 490 nm, 7-point dilution 50 μM-0.78 μM
Method: This was quantified by optical density (OD) measurement.
This assay was set up using all 96 wells of flat-bottomed 96-well plates. The outer wells were not subjected to any greater amount of evaporation than the inner wells during the 3 day assay period. (i.e. No “edge effect” seen).
Plates were set up one day before addition of virus and compounds. The assay then ran for 3 days with ELISA development taking place on the 4th day.
(§1) All 96 wells of a microtitre plate were seeded at a density of 4×10^3 Hep-2 cells/well in 100 μl/well of Growth Medium (GM) consisting of Dulbecco's MEM (DMEM) with Glutamax-1, Sodium Pyruvate, 1000 mg/l glucose and pyridoxine (Invitrogen, catalogue number 21885-025) and supplemented with 10% FBS. (See Plate 1).
A frozen vial of RSV (RSS strain provided by Virogen Ltd) stock solution was removed from the −80 freezer or liquid nitrogen store and diluted to a known Multiplicity of Infection (m.o.i) in Growth Medium.
The m.o.i. was calculated by prior titration of the virus stock (by the ELISA assay method) as the virus input required to achieve a window of at least 0.8 OD units between infected and uninfected control wells.
50 μl of diluted virus was added to infected, “virus+”, wells by multichannel pipette; 50 μl of Growth Medium was added to uninfected, cell control wells (CC) by multichannel pipette. (See Plate 2)
Plates were incubated at 37° C. for 1 hr to allow virus adsorption.
Compounds were made up at 4× strength in GM containing 2% DMSO (a final DMSO concentration in the assay of 0.5%).
(§2) Six compounds were tested on each assay plate as illustrated below. (See Plate 3). Compounds were tested in duplicate wells across a 7-point dilution series (from 50 μM-0.78 μM): in the presence of virus.
Virus infected, untreated wells served as the virus control (VC); Uninfected, untreated wells serve as the cell control (CC). The difference in absorbance between CC and VC wells constitutes the assay window.
200 μl of GM containing 2% DMSO was added to all wells except the ‘50 μM’ or first column, to which 392 μl of GM was added. 8 μl of each test compound was cherry-picked from a thawed Arrow screening plate and transferred to the appropriate well in the ‘50 μM’ column. Since the compound stock was at 10 mM in 100% DMSO, this will maintain the DMSO level at 2% at the top compound concentration.
Using a multichannel pipette, 200 μl was transferred from the 50 μM column to the 25 μM column, then to the 12.5 μM column and so on across the dilution plate creating a serial doubling dilution. Compounds were mixed upon transfer and tips changed between transfers, ensuring also that no compound was transferred to the last column of compound-free wells (0 μM).
The dilution plate was turned lengthways and 50 μl of compound easily transferred by multichannel pipette from the dilution plate to the assay plate, column by column. There was therefore an excess of 100 μl remaining in the dilution plate.
Plates were incubated at 37° C., 5% CO2 for 3 days.
Media was tapped out from wells directly into Virkon (1% solution in water) and plates were washed by immersing in a plastic box containing PBS. 50 μl/well of 75%/25% vol/vol acetone/methanol fixative was added by multichannel pipette and left for 3 mins.
Some 200 μl of blocking solution (2% Marvel in PBS containing 0.05% Tween) was added per well by multichannel pipette. Plates were incubated at 37° C. in a shaking incubator for 60 mins.
RSV mouse monoclonal antibody NCL-RSV3 (Novocastra) was diluted 1/400 in PBS/2% Marvel/0.05% Tween and 50 μl was added per well. Plates were incubated at 37° C. in a shaking incubator for 90 mins.
DAKo rabbit anti-mouse HRP conjugate (DAKO catalogue number P0260) was diluted 1/1000 in PBS/2% Marvel/0.05% Tween and 50 μl was added per well. Plates were incubated at 37° C. in a shaking incubator for 60 mins.
Substrate (SigmaFast OPD) was prepared in advance by dissolving 1 urea tablet in 20 mL water. […]

Hep-2 cells = experiment: Cell toxicity: crystal violet staining and microscopic examination of monolayers; type: cell-based; conditions: Hep-2 monolayers of the assay plates, crystal violet stain, indications of cell toxicity; compounds tested 50 μM-0.78 μM
Method: as §1, §2
The wells were emptied, washed in tap water and the monolayers stained with 50 μl/well of 2% crystal violet in 20% methanol/water for at least 1 hour. The wells were then washed and air-dried and the monolayers examined under the microscope for indications of cell toxicity.

[1] = human respiratory syncytial virus, 72 h

## N#Cc1ccc(C(=O)N[C@H]2N=C(c3ccccc3)c3ccccc3NC2=O)c(N2CCCCC2)c1 [Example 15, (S)-4-Cyano-N-(2-oxo-5-phenyl-2,3-dihydro-1H-benzo[e][1,4]diazepin-3-yl)-piperidine-1-yl-benzamide]
RSV (RSS strain)
  IC50: > 10 µM
Hep-2 cells
  TD50: Tr25

## O=C(N[C@H]1N=C(c2ccccc2)c2ccccc2NC1=O)c1ccc(F)cc1[N+]1([O-])CCS(=O)(=O)CC1 [Example 5]
RSV (RSS strain)
  IC50: < 5 µM
Hep-2 cells
  TD50: Tr25

## O=C(N[C@H]1N=C(c2ccccc2)c2ccccc2NC1=O)c1cc(F)ccc1N1CCS(=O)(=O)CC1 [Example 7, (S)-2-(1,1-Dioxo-1λ6-thiomorpholin-4-yl)-5-fluoro-N-(2-oxo-5-phenyl-2,3-dihydro-1H-benzo[e][1,4]diazepin-3-yl)-benzamide]
RSV (RSS strain); [1]
  IC50: < 5 µM
Hep-2 cells
  TD50: Tr50

## N#Cc1ccc(C(=O)N[C@H]2N=C(c3ccccc3)c3ccccc3NC2=O)c(N2CCCC2)c1 [Example 14, (S)-4-Cyano-N-(2-oxo-5-phenyl-2,3-dihydro-1H-benzo[e][1,4]diazepin-3-yl)-2-pyrrolidin-1-yl-benzamide]
RSV (RSS strain); [1]
  IC50: < 5 µM
Hep-2 cells
  TD50: Tr50

## O=C(Nc1ccc(Oc2ccccc2)cc1)NC1N=C(c2ccccc2)c2ccccc2NC1=O (racemic) [Example 52, 1-(2-Oxo-5-phenyl-2,3-dihydro-1H-benzo[e][1,4]diazepin-3-yl)-3-(4-phenoxy-phenyl)-urea]
RSV (RSS strain); [1]
  IC50: 5 to 10 µM

## O=C(N[C@H]1N=C(c2ccccc2)c2ccccc2NC1=O)c1sccc1CN1CCOCC1 [Example 48, (S)-3-Morpholin-4-ylmethyl-thiophene-2-carboxylic acid (2-oxo-5-phenyl-2,3-dihydro-1H-benzo[e][1,4]diazepin-3-yl)-amide]
RSV (RSS strain); [1]
  IC50: < 5 µM

## O=C(N[C@H]1N=C(c2ccccc2)c2ccccc2NC1=O)c1ccc(CO)o1 [Example 33, (S)-5-Hydroxymethyl-furan-2-carboxylic acid (2-oxo-5-phenyl-2,3-dihydro-1H-benzo[e][1,4]diazepin-3-yl)-amide]
RSV (RSS strain); [1]
  IC50: 5 to 10 µM

## O=C(N[C@H]1N=C(c2ccccc2)c2ccccc2NC1=O)c1cc(Cl)ccc1N1CCS(=O)(=O)CC1 [Example 6, (S)-5-Chloro-2-(1,1-dioxo-1λ6-thiomorpholin-4-yl)-N-(2-oxo-5-phenyl-2,3-dihydro-1H-benzo[e][1,4]diazepin-3-yl)-benzamide]
RSV (RSS strain); [1]
  IC50: 5 to 10 µM

## (S)-2-(1,1-Dioxo-1λ6-thiomorpholin-4-yl)-N-(2-oxo-5-phenyl-2,3-dihydro-1H-benzo[e][1,4]diazepin-3-yl)-nicotinamide [Example 22]
RSV (RSS strain)
  IC50: > 10 µM

## O=C(N[C@H]1N=C(c2ccccc2)c2ccccc2NC1=O)c1cccc(CN2CCOCC2)c1 [Example 42, (S)-3-Morpholin-4-ylmethyl-N-(2-oxo-5-phenyl-2,3-dihydro-1H-benzo[e][1,4]diazepin-3-yl)-benzamide]
RSV (RSS strain); [1]
  IC50: < 5 µM

## CN1CCN(S(=O)(=O)c2cccc(C(=O)N[C@H]3N=C(c4ccccc4)c4ccccc4NC3=O)c2)CC1 [Example 28, (S)-3-(4-Methyl-piperazine-1-sulfonyl)-N-(2-oxo-5-phenyl-2,3-dihydro-1H-benzo[e][1,4]diazepin-3-yl)-benzamide]
RSV (RSS strain); [1]
  IC50: > 10 µM

## O=C(N[C@H]1N=C(c2ccccc2)c2ccccc2NC1=O)c1ccoc1CN1CCOCC1 [Example 41, (S)-2-Morpholin-4-ylmethyl-furan-3-carboxylic acid (2-oxo-5-phenyl-2,3-dihydro-1H-benzo[e][1,4]diazepin-3-yl)-amide]
RSV (RSS strain); [1]
  IC50: < 5 µM

## O=C(N[C@H]1N=C(c2ccccc2)c2ccccc2NC1=O)c1cccnc1N1CCOCC1 [Example 21, (S)-2-Morpholin-4-yl-N-(2-oxo-5-phenyl-2,3-dihydro-1H-benzo[e][1,4]diazepin-3-yl)-nicotinamide]
RSV (RSS strain); [1]
  IC50: 5 to 10 µM
Hep-2 cells
  TD50: Tr25

## O=C(N[C@H]1N=C(c2ccccc2)c2ccccc2NC1=O)c1ccc(CN2CCS(=O)(=O)CC2)o1 [Example 34, (S)-5-(1,1-Dioxo-1λ6-thiomorpholin-4-ylmethyl)-furan-2-carboxylic acid (2-oxo-5-phenyl-2,3-dihydro-1H-benzo[e][1,4]diazepin-3-yl)-amide]
RSV (RSS strain); [1]
  IC50: < 5 µM
